According to ChEMBL document CHEMBL1268824, “Synthesis and SAR studies of 1,4-benzoxazine MenB inhibitors: novel antibacterial agents against Mycobacterium tuberculosis” (Bioorg Med Chem Lett, 2010):
In brackets after ≈: the same amount, converted by molar mass. Activity calls are given as the source filed them. The calls are words filed in the database; no cut-off is given here.

Tests used:
Escherichia coli [1] = test: Antibacterial activity against Escherichia coli M17 assessed as bacterial growth inhibition; type: functional, organism-based
[2] = molecular target: T1, 1,4-dihydroxy-2-naphthoyl-CoA synthase (Mycobacterium tuberculosis) (UniProt P9WNP5); test: Inhibition of Mycobacterium tuberculosis MenB expressed in Escherichia coli BL21 (DE3) up to 100 uM by double-reciprocal plot analysis
T1 sequence (whole entry): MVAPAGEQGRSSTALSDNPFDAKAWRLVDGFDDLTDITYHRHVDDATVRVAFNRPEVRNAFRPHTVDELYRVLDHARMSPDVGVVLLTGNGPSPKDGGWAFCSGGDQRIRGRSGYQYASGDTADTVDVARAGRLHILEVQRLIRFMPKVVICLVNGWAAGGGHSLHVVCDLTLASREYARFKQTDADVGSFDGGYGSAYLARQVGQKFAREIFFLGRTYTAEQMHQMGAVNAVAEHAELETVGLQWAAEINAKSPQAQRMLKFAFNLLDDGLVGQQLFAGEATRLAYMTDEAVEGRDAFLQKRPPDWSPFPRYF

[3] = tested on: Mycobacterium tuberculosis; test: Antibacterial activity against Mycobacterium tuberculosis H37Rv after 5 to 7 days by alamar blue assay; type: functional
Staphylococcus aureus = test: Antibacterial activity against Staphylococcus aureus P209 assessed as bacterial growth inhibition; type: functional, organism-based
[4] = molecular target: T2, 1,4-dihydroxy-2-naphthoyl-CoA synthase (Mycobacterium tuberculosis, UniProt P9WNP5); test: Inhibition of Mycobacterium tuberculosis MenB expressed in Escherichia coli BL21 (DE3) by double-reciprocal plot analysis
T2 sequence (P9WNP5 whole entry): T1 sequence (whole entry)

Mycobacterium avium = test: Antibacterial activity against Mycobacterium avium; type: functional
Escherichia coli [5] = test: Inhibition of Escherichia coli MenE expressed in Escherichia coli BL21 (DE3) at 50 uM by double-reciprocal plot analysis
[6] = molecular target: T1, 1,4-dihydroxy-2-naphthoyl-CoA synthase (Mycobacterium tuberculosis); test: Inhibition of Mycobacterium tuberculosis MenB expressed in Escherichia coli BL21 (DE3) at 125 ug/ml by double-reciprocal plot analysis
[7] = molecular target: T2, 1,4-dihydroxy-2-naphthoyl-CoA synthase; test: Non-competitive inhibition of Mycobacterium tuberculosis MenB expressed in Escherichia coli BL21 (DE3) assessed as inhibition of enzyme-substrate complex formation
[8] = molecular target: T2, 1,4-dihydroxy-2-naphthoyl-CoA synthase; test: Non-competitive inhibition of Mycobacterium tuberculosis MenB expressed in Escherichia coli BL21 (DE3)

Q: With `O=C1Oc2ccc(F)cc2N/C1=C\C(=O)c1ccccc1Cl` as the compound, how does the “growth inhibition (GI)” value (Escherichia coli [1]) read?
A: The value was “Active”.

Q: And the inhibition [2]?
A: Its inhibition is “inactive”.

Q: What about the MIC [3] of the same compound?
A: The MIC was 3.13 µg/mL (≈ 9.85 µM).

Q: What about the “growth inhibition (GI)” value (Staphylococcus aureus) of the same compound?
A: Its value is “Active”.

Q: How did the IC50 [4] turn out when `COC(=O)/C=C1\Nc2ccccc2SC1=O` was run?
A: Its IC50 is greater than 140 µM.

Q: What about the Activity (Mycobacterium avium) of the same compound?
A: Its Activity is greater than 64 µg/mL.

Q: And the MIC [3]?
A: The MIC was greater than 100 µg/mL.

Q: What does the source list for `COC(=O)/C=C1\Nc2ccc([N+](=O)[O-])cc2OC1=O`?
A: IC50 [4]: 20.3 µM; MIC [3]: > 100 µg/mL

Q: Which “growth inhibition (GI)” value (Escherichia coli [1]) does the source give for `O=C1Oc2ccccc2N/C1=C\C(=O)c1ccccc1Cl` here?
A: Its value is “Active”.

Q: What about the inhibition [2] of the same compound?
A: Its inhibition is “inactive”.

Q: And the MIC [3]?
A: Its MIC is 3.13 µg/mL (≈ 10.4 µM).

Q: And the “growth inhibition (GI)” value (Staphylococcus aureus)?
A: Its value is “Active”.

Q: `COC(=O)/C=C1\Nc2ccc(F)cc2OC1=O` was tested. Which IC50 [4] did it give?
A: Its IC50 is 30 µM.

Q: What about the MIC [3] of the same compound?
A: The MIC was 0.63 µg/mL (≈ 2.66 µM).

Q: Which inhibition (Escherichia coli [5]) does the source give for `CC(C)CC(=O)/C=C1\Nc2cc(Cl)ccc2OC1=O` here?
A: The inhibition was “inactive”.

Q: What about the inhibition [6] of the same compound?
A: Its inhibition is 98%.

Q: For `COC(=O)/C=C1\Nc2cc(F)ccc2OC1=O`, which IC50 [4] is on record?
A: Its IC50 is 27 µM.

Q: What about the Ki [7] of the same compound?
A: Its Ki is 10.1 µM.

Q: And the Ki [8]?
A: The Ki was 11.5 µM.

Q: What about the MIC [3] of the same compound?
A: The MIC was 0.63 µg/mL (≈ 2.66 µM).

Q: With `COC(=O)/C=C1\Nc2cc(Cl)ccc2OC1=O` as the compound, how does the IC50 [4] read?
A: The IC50 was 46.3 µM.

Q: What about the Ki [7] of the same compound?
A: The Ki was 18.5 µM.

Q: And the Ki [8]?
A: The Ki was 22.5 µM.

Q: What about the MIC [3] of the same compound?
A: Its MIC is 5 µg/mL (≈ 19.7 µM).

Q: How did the “growth inhibition (GI)” value (Escherichia coli [1]) turn out when `O=C1Oc2cc(F)ccc2N/C1=C\C(=O)c1ccccc1Cl` was run?
A: The value was “Active”.

Q: And the inhibition [2]?
A: Its inhibition is “inactive”.

Q: What about the MIC [3] of the same compound?
A: Its MIC is 1.56 µg/mL (≈ 4.91 µM).

Q: What about the “growth inhibition (GI)” value (Staphylococcus aureus) of the same compound?
A: Its value is “Active”.

Q: What does the source list for `CCS(=O)(=O)c1ccc2c(c1)N/C(=C\C(=O)OC)C(=O)O2`?
A: IC50 [4]: 17.9 µM; MIC [3]: > 100 µg/mL

Q: How did the IC50 [4] turn out when `COC(=O)/C=C1\Nc2ccc(Cl)cc2OC1=O` was run?
A: The IC50 was 35.7 µM.

Q: And the MIC [3]?
A: The MIC was 0.63 µg/mL (≈ 2.48 µM).

Q: How did the IC50 [4] turn out when `COC(=O)/C=C1\Nc2c(C)cccc2OC1=O` was run?
A: Its IC50 is 24.1 µM.

Q: What about the MIC [3] of the same compound?
A: Its MIC is 25 µg/mL (≈ 107 µM).

Q: With `COC(=O)/C=C1\Nc2cc(C)ccc2OC1=O` as the compound, how does the IC50 [4] read?
A: The IC50 was 23.1 µM.

Q: And the MIC [3]?
A: Its MIC is greater than 100 µg/mL.

Q: Which IC50 [4] does the source give for `COC(=O)/C=C1\Nc2ccccc2NC1=O` here?
A: Its IC50 is greater than 122 µM.

Q: And the Activity (Mycobacterium avium)?
A: The Activity was greater than 64 µg/mL.

Q: And the MIC [3]?
A: Its MIC is greater than 100 µg/mL.

Q: Which inhibition (Escherichia coli [5]) does the source give for `Cc1ccc2c(c1)N/C(=C\C(=O)CC(C)C)C(=O)O2` here?
A: The inhibition was “inactive”.

Q: And the inhibition [6]?
A: Its inhibition is 77.3%.

Q: How did the “growth inhibition (GI)” value (Escherichia coli [1]) turn out when `O=C1Oc2ccc(Cl)cc2N/C1=C\C(=O)c1ccccc1Cl` was run?
A: Its value is “Active”.

Q: What about the inhibition [2] of the same compound?
A: Its inhibition is “inactive”.

Q: What about the MIC [3] of the same compound?
A: Its MIC is 12.5 µg/mL (≈ 37.4 µM).

Q: And the “growth inhibition (GI)” value (Staphylococcus aureus)?
A: The value was “Active”.

Q: How did the “growth inhibition (GI)” value (Escherichia coli [1]) turn out when `O=C1Oc2cc(Cl)ccc2N/C1=C\C(=O)c1ccccc1Cl` was run?
A: Its value is “Active”.

Q: And the inhibition [2]?
A: The inhibition was “inactive”.

Q: And the MIC [3]?
A: The MIC was 3.13 µg/mL (≈ 9.37 µM).

Q: And the “growth inhibition (GI)” value (Staphylococcus aureus)?
A: Its value is “Active”.

Q: Which IC50 [4] does the source give for `COC(=O)/C=C1\Nc2cc([N+](=O)[O-])ccc2OC1=O` here?
A: The IC50 was 28.2 µM.

Q: What about the MIC [3] of the same compound?
A: Its MIC is 50 µg/mL (≈ 189 µM).

Q: How did the IC50 [4] turn out when `COC(=O)/C=C1\Nc2ccc(C)cc2OC1=O` was run?
A: The IC50 was 18.2 µM.

Q: What about the MIC [3] of the same compound?
A: The MIC was 100 µg/mL (≈ 429 µM).

Q: With `COC(=O)/C=C1\Nc2ccccc2OC1=O` as the compound, how does the IC50 [4] read?
A: Its IC50 is 10 µM.

Q: What about the Ki [7] of the same compound?
A: Its Ki is 67 µM.

Q: And the Ki [8]?
A: The Ki was 9.1 µM.

Q: What about the MIC [3] of the same compound?
A: Its MIC is 0.64 µg/mL (≈ 2.92 µM).

Q: What does the source list for `CCS(=O)(=O)c1ccc2c(c1)N/C(=C\C(=O)C(C)(C)C)C(=O)O2`?
A: inhibition (Escherichia coli [5]): inactive; inhibition [6]: 60.3%

Q: `Cc1ccc2c(c1)OC(=O)/C(=C/C(=O)c1ccccc1Cl)N2` was tested. Which “growth inhibition (GI)” value (Escherichia coli [1]) did it give?
A: The value was “Active”.

Q: And the inhibition [2]?
A: The inhibition was “inactive”.

Q: And the MIC [3]?
A: Its MIC is greater than 100 µg/mL.

Q: What about the “growth inhibition (GI)” value (Staphylococcus aureus) of the same compound?
A: Its value is “Active”.

Q: `CC(C)(C)/C(O)=C/c1nc2ccccc2oc1=O` was tested. Which inhibition (Escherichia coli [5]) did it give?
A: Its inhibition is “inactive”.

Q: What about the inhibition [6] of the same compound?
A: Its inhibition is 68.4%.

Q: What does the source list for `Cc1ccc2c(c1)N/C(=C\C(=O)c1ccccc1Cl)C(=O)O2`?
A: growth inhibition (GI) (Escherichia coli [1]): Active; inhibition [2]: inactive; MIC [3]: 100 µg/mL (≈ 319 µM); growth inhibition (GI) (Staphylococcus aureus): Active
